Experimental data reported in patent US20110245223A1, “HETEROCYCLIC COMPOUNDS” (Japan Tobacco Inc., priority 2005, published 2011).

Target: T1, human HSD-1 (recombinant HSD-1) (Homo sapiens, UniProt P28845)
T1 construct: made in house
Assay: HSD-1 (hydroxysteroid dehydrogenase 1) activity inhibitory action in vitro, SPA, conversion of cortisone to cortisol
Assay type: biochemical
Settings: recombinant human HSD-1 expressed using baculovirus system, 10 nM 3H cortisone, 500 μM NADPH, room temperature 90 to 120 min, read-out: hHSD1 (IC50 (nM))

T1 sequence (P28845 whole entry): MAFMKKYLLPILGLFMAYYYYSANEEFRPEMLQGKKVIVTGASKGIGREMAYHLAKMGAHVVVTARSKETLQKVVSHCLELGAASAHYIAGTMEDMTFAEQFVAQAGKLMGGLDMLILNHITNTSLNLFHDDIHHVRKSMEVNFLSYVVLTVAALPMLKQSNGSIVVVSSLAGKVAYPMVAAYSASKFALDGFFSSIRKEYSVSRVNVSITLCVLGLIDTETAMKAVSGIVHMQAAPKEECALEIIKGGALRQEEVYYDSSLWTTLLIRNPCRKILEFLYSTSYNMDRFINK

IC50: < 30 nM
Structure (SMILES): O=C(OCCO)N1CCC(n2ncc(C(=O)N3CC[C@@H](c4ccccc4C(F)(F)F)C3)c2C2CC2)CC1 [Example 58, 1-{5-cyclopropyl-1-[1-(2-hydroxyethoxycarbonyl)piperidin-4-yl]-1H-pyrazole-4-carbonyl}-[(S)-3-(2-trifluoromethylphenyl)]pyrrolidine]
